This is an account of results in PMC8152814, “The modulatory role of sulfated and non-sulfated small molecule heparan sulfate-glycomimetics in endothelial dysfunction: absolute structural clarification, molecular docking and simulated dynamics, SAR analyses and ADMET studies” (RSC Medicinal Chemistry, 2021).

Format in all cases: cell-based, human
Holding throughout (settings): averaged % of increase (+) or decrease (−) compared to control (FFA induced oxidatively stressed endothelial cells), n = 3

In one assay the test system is nitric oxide (NO). The experiment in a line: NO release assay (DAF-2) in FFA-stressed cells. The source says:
(§1) The assays focused on the production of nitric oxide (NO) and the upregulation of nitric oxide synthase (eNOS), the production of reactive oxygen species (ROS) and the activity of nicotinamide adenine dinucleotide phosphate (NADPH) oxidase (Table 2). From the hypothesised model of heparan sulfate-glycomimetic activity,[17] the glycomimetics are proposed to attenuate the binding of HGF to the cMET receptor. This disruption to MET-receptor activation is proposed to modulate intracellular phosphorylation leading to an upregulation of eNOS and increased output of extracellular NO. […] Overall, the cross examination of NO output and reduction of ROS was used to determine the therapeutic action of the triaged glycomimetics α-4, R-10, S-10 and β-5, as well as 3 non-sulfated intermediates α-2, α-3 and β-3, on free fatty acid (FFA) induced, oxidatively stressed endothelial cell cultures (Table 2).
(§2) Biological assay and AMDET experimental details […]
(§3) Preparation of FFA-albumin complexes and cell treatments
(§4) To generate the in vitro model of oxidative stress, sodium palmitate was bound to bovine serum albumin (BSA) as outlined by Chavez and Summers,S2 with modifications. Sodium palmitate (FFA) was dissolved in EtOH at 60 °C and diluted 1:100 in M199 media supplemented with 2% fatty acid-free bovine serum albumin (BSA) and incubated for 1 h at 37 °C. HepG2 cells were treated with 1 μmol/L of the synthesized HS-glycomimetics in the presence of palmitate (100 μmol/L) for 3 h or pre-treated with glycomimetics for 12 h followed by 3 h palmitate (100 μmol/L). Control cells were incubated in serum free M199 containing 2% (wt/vol) fatty acid-free BSA.
NO release assay and Quantification of ROS production
NO release was determined using diaminofluorescein-2 (DAF-2).S3 The cells were washed with PBS and incubated with L-arginine (100 μmol/L in PBS) for 5 min at 37 °C before incubation with DAF-2 (0.1 μmol/L) for 2 min, followed by the calcium ionophore calimycin (A23187, 1 μmol L) for 30 min. L-NAME (100 μmol/L), a nitric oxide inhibitor (NOS), was also added 20 min before the addition of L-arginine in some experiments to determine the involvement of NOS. DAF-2 fluorescence (arbitrary units, AU) was quantified using a microplate reader (BioTek) with excitation and emission wavelengths of 485 nm and 540 nm, respectively. The auto-fluorescence was subtracted from each value. […]
(§5) H2DCFDA, Sigma) for 30 min at 37 °C, and the level of fluorescence was determined (excitation 490 nm; emission 540 nm) using a microplate reader (BioTek).
(§6) The level of NADPH-enhanced superoxide anions (O2•−) in HepG2 homogenates was determined by lucigenin-enhanced chemiluminescence.S4 Following the various treatment conditions, cells were homogenized in a buffer (20 mmol/L H2KPO4 and 1 mmol/L EDTA supplemented with aprotinin, leuprotinin, pepstatin and PMSF). The total protein quantified using the Bicinchoninic acid (BCA) assay (Pierce Biotechnology). To 50 μg of total protein, NADPH (100 μmol/L) was added in a total volume of 500 μL, with lucigenin (5 μmol/L) and was injected automatically. Activity was determined by measuring luminescence over 200 s in a scintillation counter (Lumat LB 9507, Berthold, Germany). Basal values of NADPH oxidase activity were subtracted from the experimental values and expressed as RLU/min/μg protein […]
(§7) In situ quantification of ROS species
(§8) Superoxide dismutase (SOD) and catalase (CAT) activity assays, and in situ detection of vascular ROS content. The activity of the enzymes, SOD and CAT, was determined in cell homogenates using assay kits according to the manufacturer's instructions (Cayman; Cat No 706002 and 707002 respectively). A unit of SOD was defined as the amount of enzyme […]
(§9) Similarly, a unit of CAT was […]
(§10) defined as the amount required to form 1.0 nmol of formaldehyde per min at 25 °C.S5

A further assay concerns eNOS. The experiment in a line: eNOS phosphorylation (Western blot) in FFA-stressed cells.
Source text: as §1, §2, §3
as §4, with “BSA. […]” for “BSA.”
HepG2 wells were lysed in RIPA buffer containing proteinase inhibitors and the total protein was quantified using BCA protein assay kit (Pierce Biotechnology). Proteins (30 μg/well) were denatured and separated by sodium dodecyl sulfate (SDS)-polyacrylamide gel electrophoresis and transferred to polyvinylidene difluoride (PVDF) membranes. Blots were blocked for 1 h in 5% semi-skimmed milk/Tris-Buffered Saline Tween-20 (TBS-T), probed with primary rabbit anti-phospho-protein kinase B (Akt), rabbit anti-Akt (Santa Cruz Biotechnology), rabbit polyclonal anti-phospho-eNOS (Cell Signaling) overnight at 4 °C followed by washing and incubation with the corresponding horse radish peroxidase-labelled secondary antibody for 1 h at room temperature. After washing with TBS-T, membranes were incubated with ECL reagent and visualized (Amersham Pharmacia Biotech). Densitometry analysis using ImageJ© (version 1.32j, NIH) was used to quantify the protein signal.S7 […]
(typically 0.01 M phosphate buffered saline pH 7.4) so that the final DMSO concentration is 1 % and the final test compound concentrations are 1, 3, 10, 30 and 100 µM. The experiment is performed at 37 °C and each concentration is incubated in 7 replicate wells. The plates are incubated for 2 h at 37 °C before the absorbance is measured at 620nm. Nicardipine (pH dependent) and pyrene (pH independent) are included as control compounds. The solubility is estimated from the concentration of test compound that produces an increase in absorbance above vehicle control (1% DMSO in buffer).

The test system of assay [1] is reactive oxygen species (ROS). The experiment in a line: ROS production in FFA-stressed cells.
Source text: as §1, §2, §3, §4
NO release assay and Quantification of ROS production […]
The auto-fluorescence was subtracted from each value. Cells were incubated with 10 μmol/L of the fluorescent probe: 2′-7′-dichlorodihydrofluorescein diacetate (CM-H2DCFDA, Sigma) for 30 min at 37 °C, and the level of fluorescence was determined (excitation 490 nm; emission 540 nm) using a microplate reader (BioTek).
as §6, §7, §8, §9
defined as the amount required to form 1.0 nmol of formaldehyde per min at 25 °C.S5 […]
HepG2 cells were incubated in serum-free DMEM containing 2% fatty acid-free BSA (control) or palmitate conjugated BSA (100 μmol/L) in the presence of HS-glycomimetics (1 or 10 μmol/L) for 24 h. The cells were incubated for 30 min in Hepes-buffered solution containing 10 μmol/L dihydroethidium (DHE), which intercalates with DNA in the presence of ROS and is detectable by fluorescence. Cells were counterstained with the nuclear stain DAPI at 0.3 μmol/L. In the following 24 h, the cell cultures were examined using a fluorescence microscope (Leica DMIRB). Sections were photographed and fluorescence was quantified using ImageJ. […]

The next assay has as its system NADPH oxidase. The experiment in a line: NADPH oxidase activity (lucigenin chemiluminescence) in cell homogenates. Also noted: concentration or dose not given beside the values.
Source text: as §1, §2, §3
as §4, with “BSA. […]” for “BSA.”
as §5, §6, §7, §8, §9, §10

Turning to `COC(=O)c1cc(OC[C@H](O)CO)ccc1OC[C@@H](O)CO` (mixture of isomers) [α-2, methyl 5-((R)-2,3-dihydroxypropoxy)-2-((S)-2,3-dihydroxypropoxy)benzoate], the NO production entry in the assay with nitric oxide (NO) is “+46%”. Moreover, the eNOS phosphorylation result with eNOS is recorded as “+286%”. Besides, the ROS production in assay [1] is −36%. For the same compound, the NADPH oxidase activity in the assay on NADPH oxidase was −26%.

For the compound `O=C(O)c1cc(OCC(O)CO)ccc1OCC(O)CO` (mixture of isomers) [α-3, sodium 5-((R)-2,3-dihydroxypropoxy)-2-((±)-2,3-dihydroxypropoxy)benzoate], the NO production result in the assay with nitric oxide (NO) is on record as “+41%”. Further, the eNOS phosphorylation result with eNOS is listed as “+312%”. In addition, the ROS production in assay [1] is recorded as −23%. The NADPH oxidase activity in the assay on NADPH oxidase is −21%.

With `O=C(O)c1cc(OCC(O)CO)ccc1OCC(O)CO` (mixture of isomers) [β-3, sodium 5-((S)-2,3-dihydroxypropoxy)-2-((±)-2,3-dihydroxypropoxy)benzoate], in the assay on nitric oxide (NO), the NO production entry is “+52%”. For the same compound, in the assay on eNOS, the eNOS phosphorylation result is listed as “+294%”. Besides, in assay [1], the ROS production was −19%. Besides, the NADPH oxidase activity in the assay on NADPH oxidase was −27%.
